# Calls of active or inactive are those of the source. The rule behind the calls is not given here.
# What was measured:
# HT-29 [1] = experiment: Antiproliferative activity against human HT-29 cells measured after 72 hrs by sulforhodamine B assay; type: functional, cell-based; conditions: HT-29, 72 h
# T84 [2] = experiment: Antiproliferative activity against human T84 cells measured after 72 hrs by sulforhodamine B assay; type: functional, cell-based; conditions: T84, 72 h
# SW480 [3] = experiment: Antiproliferative activity against human SW480 cells measured after 72 hrs by sulforhodamine B assay; type: functional, cell-based; conditions: SW480, 72 h
# LoVo = experiment: Antiproliferative activity against human Lovo cells measured after 72 hrs by sulforhodamine B assay; type: functional, cell-based
# Caco-2 = experiment: Antiproliferative activity against human Caco2 cells measured after 72 hrs by sulforhodamine B assay; type: functional, cell-based; conditions: Caco-2, 72 h
# SW-620 = experiment: Antiproliferative activity against human SW620 cells measured after 72 hrs by sulforhodamine B assay; type: functional, cell-based; conditions: SW-620, 72 h
# GES1 = experiment: Antiproliferative activity against human GES1 cells measured after 72 hrs by sulforhodamine B assay; type: cell-based; conditions: GES1, 72 h
# [4] = Antiproliferative activity against human GM00637 cells measured after 72 hrs by sulforhodamine B assay; type: cell-based; conditions: GM00637, 72 h
# [5] = Antiproliferative activity against human SNU878 cells measured after 72 hrs by sulforhodamine B assay; type: functional, cell-based; conditions: SNU878, 72 h
# [6] = Antiproliferative activity against human MINO cells measured after 72 hrs by CCK-8 assay; type: functional, cell-based
# HT-29 [7] = experiment: Additive antiproliferative activity against human HT29 cells assessed as combination index at 10 uM after 72 hrs in presence of 2.5 uM AKT inhibitor MK2206 by Chou-Talalay method; type: functional
# HT-29 [8] = experiment: Synergistic antiproliferative activity against human HT29 cells assessed as combination index at 20 uM after 72 hrs in presence of 5 uM AKT inhibitor MK2206 by Chou-Talalay method; type: functional
# HT-29 [9] = experiment: Synergistic antiproliferative activity against human HT29 cells assessed as combination index at 30 uM after 72 hrs in presence of 7.5 uM AKT inhibitor MK2206 by Chou-Talalay method; type: functional
# SW480 [10] = experiment: Additive antiproliferative activity against human SW480 cells assessed as combination index at 10 uM after 72 hrs in presence of 5 uM AKT inhibitor MK2206 by Chou-Talalay method; type: functional
# COLO-678 [11] = experiment: Additive antiproliferative activity against human COLO-678 cells assessed as combination index at 10 uM after 72 hrs in presence of 2.5 uM AKT inhibitor MK2206 by Chou-Talalay method; type: functional
# COLO-678 [12] = experiment: Additive antiproliferative activity against human COLO-678 cells assessed as combination index at 20 uM after 72 hrs in presence of 5 uM AKT inhibitor MK2206 by Chou-Talalay method; type: functional
# COLO-678 [13] = experiment: Synergistic antiproliferative activity against human COLO-678 cells assessed as combination index at 30 uM after 72 hrs in presence of 7.5 uM AKT inhibitor MK2206 by Chou-Talalay method; type: functional
# T84 [14] = experiment: Additive antiproliferative activity against human T84 cells assessed as combination index at 10 uM after 72 hrs in presence of 5 uM AKT inhibitor MK2206 by Chou-Talalay method; type: functional
# T84 [15] = experiment: Synergistic antiproliferative activity against human T84 cells assessed as combination index at 20 uM after 72 hrs in presence of 10 uM AKT inhibitor MK2206 by Chou-Talalay method; type: functional
# SW480 [16] = experiment: Additive antiproliferative activity against human SW480 cells assessed as combination index at 40 uM after 72 hrs in presence of 20 uM AKT inhibitor MK2206 by Chou-Talalay method; type: functional
# HT-29 [17] = experiment: Induction of apoptosis in human HT29 cells at 15 uM after 48 hrs by Annexin-V-FITC/PI staining based flow cytometric analysis; type: functional, cell-based
# HT-29 [18] = experiment: Induction of apoptosis in human HT29 cells at 15 uM after 48 hrs in presence of 7.5 uM AKT inhibitor MK2206 by Annexin-V-FITC/PI staining based flow cytometric analysis; type: functional
# HT-29 [19] = experiment: Induction of ROS generation in human HT29 cells at 20 uM after 16 hrs in presence of 10 uM AKT inhibitor MK2206 by flow cytometric analysis; type: functional, cell-based
# HT-29 [20] = experiment: Induction of apoptosis in human HT29 cells assessed as inhibition of AKT phosphorylation at 20 uM after 48 hrs by Western blotting analysis; type: functional, cell-based
# HT-29 [21] = experiment: Induction of apoptosis in human HT29 cells assessed as inhibition of AKT phosphorylation at 20 uM after 48 hrs in presence of 10 uM MK2206 by Western blotting analysis; type: functional, cell-based
# HT-29 [22] = experiment: Induction of cell cycle arrest in human HT29 cells assessed as accumulation at G0/G1 phase at 20 uM after 24 hrs by PI staining based flow cytometry analysis; type: functional
# HT-29 [23] = experiment: Downregulation of c-Myc protein expression level in human HT29 cells at 20 uM incubated for 24 hrs in presence of 10 uM AKT inhibitor MK2206 by Western blotting analysis; type: functional, cell-based
# HT-29 [24] = experiment: Downregulation of c-Myc protein expression level in human HT29 cells at 20 uM incubated for 24 hrs by Western blotting analysis; type: functional, cell-based
# HT-29 [25] = experiment: Upregulation of p21 protein expression in human HT29 cells at 20 uM incubated for 24 hrs by Western blotting analysis; type: functional, cell-based
# HT-29 [26] = experiment: Down regulation of p-RB expression in human HT29 cells at 20 uM incubated for 24 hrs in presence of 10 uM AKT inhibitor MK2206 by Western blotting analysis; type: functional, cell-based
# HT-29 [27] = experiment: Down regulation of p-RB expression in human HT29 cells at 20 uM incubated for 24 hrs by Western blotting analysis; type: functional, cell-based
# HT-29 [28] = experiment: Down regulation of CDK4 expression in human HT29 cells at 20 uM incubated for 24 hrs in presence of 10 uM AKT inhibitor MK2206 by Western blotting analysis; type: functional, cell-based
# [29] = Tmax in BALB/c mouse at 50 mg/kg, ip; type: ADME, organism-based; conditions: in vivo
# [30] = Cmax in BALB/c mouse at 50 mg/kg, ip; type: ADME, organism-based; parameters: route intraperitoneal, dose 50 mg/kg; conditions: in vivo
# [31] = AUC(0 to t) in BALB/c mouse at 10 mg/kg, iv; type: ADME, organism-based; parameters: dose 10 mg/kg; conditions: in vivo
# [32] = AUC(0 to infinity) in BALB/c mouse at 50 mg/kg, ip; type: ADME, organism-based; parameters: time infinity, route intraperitoneal, dose 50 mg/kg; conditions: in vivo
# [33] = AUC(0 to infinity) in BALB/c mouse at 10 mg/kg, iv; type: ADME, organism-based; parameters: route intravenous, time infinity, dose 10 mg/kg; conditions: in vivo
# [34] = Half life in BALB/c mouse at 10 mg/kg, iv; type: ADME, organism-based; conditions: in vivo
# HT-29 [35] = experiment: Antitumor activity against human HT-29 cells xenografted in BALB/c nude mouse assessed as tumor growth inhibition at 100 mg/kg/day, ip measured every 3 days by electronic caliper method; type: functional; conditions: HT-29, ip, 72 h, time 3 day, read-out: TGI
# HT-29 [36] = experiment: Antitumor activity against human HT-29 cells xenografted in BALB/c nude mouse assessed as tumor growth inhibition at 100 mg/kg/day, ip measured every 3 days in presence of 50 mg/kg AKT inhibitor MK2206 by electronic caliper method; type: functional; conditions: HT-29, ip, 72 h, time 3 day, read-out: TGI
# [37] = Toxicity in BALB/c nude mouse xenografted with human HT-29 cells assessed as effect on body weight at 100 mg/kg/day, ip measured every 3 day by electronic caliper method; type: organism-based; conditions: in vivo, 72 h
smiles,measurement,setting,value
CCCCCCCOc1ccc(CCC(CO)(CO)NC(C)=O)c2ccccc12,IC50,HT-29 [1],17.6 µM
same,IC50,T84 [2],14.9 µM
same,IC50,SW480 [3],22.7 µM
same,IC50,LoVo,26.4 µM
same,IC50,Caco-2,28 µM
same,IC50,SW-620,29.6 µM
same,IC50,GES1,41.8 µM
same,IC50,[4],47.9 µM
same,IC50,[5],6.68 µM
same,IC50,[6],13.3 µM
same,CI,HT-29 [7],1.05
same,CI,HT-29 [8],0.77
same,CI,HT-29 [9],0.53
same,CI,SW480 [10],0.9
same,CI,COLO-678 [11],0.87
same,CI,COLO-678 [12],0.89
same,CI,COLO-678 [13],0.43
same,CI,T84 [14],1.01
same,CI,T84 [15],0.65
same,CI,SW480 [16],0.97
same,Activity,HT-29 [17],inactive
same,Activity,HT-29 [18],40%
same,Activity,HT-29 [19],Active
same,Activity,HT-29 [20],Active
same,Activity,HT-29 [21],inactive
same,Activity,HT-29 [22],inactive
same,Activity,HT-29 [23],Active
same,Activity,HT-29 [24],inactive
same,Activity,HT-29 [25],inactive
same,Activity,HT-29 [26],Active
same,Activity,HT-29 [27],inactive
same,Activity,HT-29 [28],Active
same,Tmax,[29],45 min
same,Cmax,[30],6030 ng/mL
same,AUC(0-t),[31],3060 ng·h/mL
same,AUC(0-inf),[32],15700 ng·h/mL
same,AUC(0-inf),[33],3060 ng·h/mL
same,half-life,[34],187 min
same,inhibition in vivo at 100 mg/kg/day,HT-29 [35],25.4%
same,inhibition in vivo at 100 mg/kg/day,HT-29 [36],47.5%
same,Activity,[37],Non-Toxic

# Source: ChEMBL document CHEMBL4732213, “Discovery of novel ceramide analogs with favorable pharmacokinetic properties and combination with AKT inhibitor against colon cancer” (Eur J Med Chem, 2021)
